The values below are quoted from earlier work in US6821541B2, “Anaerobic tea steeper and method of use” (priority 2002, dated 2004).

Like-named read-outs stand apart in the source and are kept apart here.

In data set [1] the test system is canine lymphoma (lymphosarcoma). Particulars: dogs with lymphoma.
For data set [2] the following is noted: for stability in tea drinks: room temperature.

With `COc1cccc2c1C(=O)c1c(O)c3c(c(O)c1C2=O)C[C@@](O)(C(=O)CO)C[C@@H]3O[C@H]1C[C@H](N)[C@H](O)[C@H](C)O1` [Doxorubicin], in data set [1] (drug alone, guideline value), the duration of remission is given as 18-29 weeks.
Turning to `Oc1cc(O)c2c(c1)O[C@H](c1ccc(O)c(O)c1)[C@H](O)C2` [EC, (−) epicatechin], in data set [2], the “stability in tea drinks” value is “generally stable”.
Turning to `O=C(O[C@@H]1Cc2c(O)cc(O)cc2O[C@@H]1c1ccc(O)c(O)c1)c1cc(O)c(O)c(O)c1` [ECG, (−) epicatechin gallate], in data set [2], the “stability in tea drinks” value is reported as “generally stable”.
For the molecule `C[C@]12C=CC(=O)C=C1CC[C@@H]1[C@@H]2C(=O)C[C@@]2(C)[C@H]1CC[C@]2(O)C(=O)CO` [Prednisone], in data set [1] (guideline values), the duration of remission entry is reported as “about 30 days”.
Regarding (−) epigallocatechin gallate [EGCG], in data set [2] (4° C., 24 hours, pH 3-9), the “stability in aqueous solution” value was “stable”. Also, in data set [2] (24 hours at 50° C. and pH 5), the “level remaining after degradation” value is “below 80 % of the initial concentration”. Moreover, the “stability in tea drinks” value in data set [2] is “generally stable”.
